BindingDB's records for doi:10.7270/Q2T72FVT (University of Pittsburgh, 2007)

Target: Serine/threonine-protein kinase PLK1 (Homo sapiens, UniProt P53350)
Assay: potency against Plk1 PBD phosphopeptide binding – biochemical, fluorescence polarization, dose response (AID 877)

Chain of Serine/threonine-protein kinase PLK1 (P53350 whole entry): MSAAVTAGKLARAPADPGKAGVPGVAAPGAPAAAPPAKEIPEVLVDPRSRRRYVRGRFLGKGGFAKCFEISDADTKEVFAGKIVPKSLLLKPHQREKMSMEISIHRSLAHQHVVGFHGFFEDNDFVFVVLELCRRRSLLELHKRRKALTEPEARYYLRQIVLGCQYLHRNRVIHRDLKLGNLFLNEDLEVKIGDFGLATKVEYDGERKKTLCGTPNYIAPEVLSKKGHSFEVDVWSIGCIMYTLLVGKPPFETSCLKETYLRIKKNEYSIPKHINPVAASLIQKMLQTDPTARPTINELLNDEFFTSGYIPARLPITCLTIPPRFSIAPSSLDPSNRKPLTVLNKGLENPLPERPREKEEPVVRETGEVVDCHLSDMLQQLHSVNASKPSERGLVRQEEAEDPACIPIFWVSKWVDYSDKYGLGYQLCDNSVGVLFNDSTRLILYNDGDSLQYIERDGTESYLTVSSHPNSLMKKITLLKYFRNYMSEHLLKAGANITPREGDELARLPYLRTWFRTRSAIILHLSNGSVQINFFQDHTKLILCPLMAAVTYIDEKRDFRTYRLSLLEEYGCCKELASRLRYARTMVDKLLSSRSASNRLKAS

Structure (SMILES)	IC50 [µM]
CN1C(=O)N(C)C(=O)C2(Sc3ccccc3C2=O)C1=O [1',3'-dimethylspiro[benzothiophene-2,5'-hexahydropyrimidine]-2',3,4',6'-diquinone]	> 50
CC1CCCC(NC2CCCCNC2=O)C1 (stereo not drawn) [3-[(3-methylcyclohexyl)amino]-2-azepanone]	> 50
O=[N+]([O-])c1ccc(N2CCNCC2)cc1NCC1CCCO1 (stereo not drawn) [(2-nitro-5-piperazino-phenyl)-(tetrahydrofurfuryl)amine]	> 50
O=C(CN1C(=O)c2ccccc2C1=O)N1CCN(c2nnc(-c3ccccc3)c3ccccc23)CC1 [2-[2-keto-2-[4-(4-phenylphthalazin-1-yl)piperazino]ethyl]isoindoline-1,3-quinone]	> 50
C=CCn1c2ccccc2c2nnc(SCc3ccc4nonc4c3)nc21 [5-[(5-prop-2-enyl-[1,2,4]triazino[5,6-b]indol-3-yl)sulfanylmethyl]-2,1,3-benzoxadiazole]	> 50
Cc1ccccc1Oc1ncnc2oc(-c3ccccc3)cc12 [4-(2-methylphenoxy)-6-phenyl-furo[2,3-d]pyrimidine]	> 50
Cc1ccc(OCC(=O)Nc2ccc(N3CCOCC3)cc2)cc1 [2-(4-methylphenoxy)-N-(4-morpholin-4-ylphenyl)acetamide]	> 50
COC(=O)CNC(=O)C12CC3(C)CC(C)(CC(C)(C3)C1)C2 [2-[[oxo-(3,5,7-trimethyl-1-adamantyl)methyl]amino]acetic acid methyl ester]	> 50
COc1ccc(N(C)C2=NS(=O)(=O)c3ccccc32)cc1 [(1,1-Dioxo-1H-1lambda*6*-benzo[d]isothiazol-3-yl)-(4-methoxy-phenyl)-methyl-amine]	> 50
CCn1c(SCC(N)=O)nnc1-c1ccc(S(=O)(=O)N2CCN(C)CC2)cc1 [2-[[4-ethyl-5-[4-(4-methylpiperazin-1-yl)sulfonylphenyl]-1,2,4-triazol-3-yl]sulfanyl]acetamide]	> 50
COc1ccc(Nc2oc(-c3ccccc3Cl)nc2C#N)cc1 [2-(2-chlorophenyl)-5-(4-methoxyanilino)-1,3-oxazole-4-carbonitrile]	> 50
O=C(CC1C(=O)NCCN1C(=S)Nc1ccccc1)Nc1ccc2c(c1)OCCO2 (stereo not drawn) [2-[1-(anilinocarbonothioyl)-3-oxo-2-piperazinyl]-N-(2,3-dihydro-1,4-benzodioxin-6-yl)acetamide]	> 50
COc1ccc(Cn2c(=O)sc3ccccc32)cc1 [3-(4-Methoxy-benzyl)-3H-benzothiazol-2-one]	> 50
Cc1ccc(C(=O)Nc2cnc3sc(C)nn3c2=O)cc1 [4-methyl-N-(2-methyl-5-oxidanylidene-[1,3,4]thiadiazolo[3,2-a]pyrimidin-6-yl)benzamide]	> 50
COC(=O)CCc1c(C)[nH]c(=S)[nH]c1=O [3-(6-methyl-4-oxo-2-sulfanylidene-1H-pyrimidin-5-yl)propanoic acid methyl ester]	> 50
O=C1CCC(C(=O)O)(c2ccccc2)C1 (stereo not drawn) [3-Oxo-1-phenyl-cyclopentanecarboxylic acid]	> 50
O=C1CCN2C=Nc3cccc4ccc1c2c34 [7,8-dihydro-9H-pyrido[1,2,3-cd]perimidin-9-one]	25.1
Cc1ccc2c(c1)CC1(CN2C)C(=O)NC(=O)N(c2ccccc2C)C1=O (stereo not drawn) [1',6'-dimethyl-1-(2-methylphenyl)spiro[1,3-diazinane-5,3'-2,4-dihydroquinoline]-2,4,6-trione]	> 50
COc1ccc(S(=O)(=O)N(C)CC(=O)Nc2ccccc2C(F)(F)F)cc1 [2-[(4-methoxyphenyl)sulfonyl-methyl-amino]-N-[2-(trifluoromethyl)phenyl]acetamide]	> 50
O=C(Cc1ccc(Cl)cc1)NCCN1CCCC1 [2-(4-Chloro-phenyl)-N-(2-pyrrolidin-1-yl-ethyl)-acetamide]	> 50

Structure (SMILES)	IC50 [µM]
CC1Cc2ccccc2N1C(=O)c1ccc2c(c1)nnn2C (stereo not drawn) [(1-methyl-5-benzotriazolyl)-(2-methyl-2,3-dihydroindol-1-yl)methanone]	> 50
CCCc1nc2sc3c(c2c(=O)n1NC(=O)CCC(=O)O)CCCC3 [4-keto-4-[(4-keto-2-propyl-5,6,7,8-tetrahydrobenzothiopheno[2,3-d]pyrimidin-3-yl)amino]butyric acid]	> 50
Cn1nc(-c2ccc(Cl)cc2)nc2c(=O)n(C)c(=O)nc1-2 [3-(4-Chloro-phenyl)-1,6-dimethyl-1H-pyrimido[5,4-e][1,2,4]triazine-5,7-dione]	2.46
CCC(=O)Nc1ccccc1C(=O)NC1CCCCC1 [MLS000538265]	> 50
CNC(=O)CC(C(=O)O)c1ccc(OCC(C)C)cc1 (stereo not drawn) [2-(4-Isobutoxy-phenyl)-N-methyl-succinamic acid]	> 50
OCC(CO)(CO)N=Cc1cc(Br)ccc1O [(6E)-4-bromanyl-6-[[[2-(hydroxymethyl)-1,3-bis(oxidanyl)propan-2-yl]amino]methylidene]cyclohexa-2,4-dien-1-one]	> 50
NC(=O)Cn1c(S(=O)(=O)Cc2ccccc2)nc2ccccc21 [2-(2-benzylsulfonylbenzimidazol-1-yl)acetamide]	> 50
Nc1cc2nsnc2cc1Br [(6-bromopiazthiol-5-yl)amine]	40.8
CC(C)N(Cc1cc2ccccc2[nH]c1=O)C(=O)c1cccnc1 [N-[(2-oxo-1H-quinolin-3-yl)methyl]-N-propan-2-ylpyridine-3-carboxamide]	> 50
O=C1CN(c2ccc(Br)cc2)C(=O)N1CC(=O)N1CCCc2ccccc21 [1-(4-bromophenyl)-3-[2-(3,4-dihydro-1(2H)-quinolinyl)-2-oxoethyl]-2,4-imidazolidinedione]	> 50
CC1CN(C2CC(C)(C)NC(C)(C)C2)CCC1=O (stereo not drawn) [3-methyl-1-(2,2,6,6-tetramethyl-4-piperidinyl)-4-piperidinone]	> 50
CCC(Sc1nc2nnc(C)c-2c(N)n1-c1cccc(Cl)c1)C(=O)NCCOC (stereo not drawn) [2-[4-amino-5-(3-chlorophenyl)-3-methylpyrazolo[3,4-d]pyrimidin-6-yl]sulfanyl-N-(2-methoxyethyl)butanamide]	> 50
NC(=O)C1CCN(C2=C(Cl)C(=O)c3ccccc3C2=O)CC1 [SMR000180199]	33.3
O=C(NCCc1ccccc1)/C(=C\c1ccc([N+](=O)[O-])cc1)NC(=O)c1ccccc1 [MLS000575866]	> 50
O=C(Nc1cccn(Cc2c(Cl)cccc2Cl)c1=O)c1c(Cl)cccc1Cl [2,6-dichloro-N-[1-(2,6-dichlorobenzyl)-2-keto-3-pyridyl]benzamide]	> 50
c1ccc(NCc2nnc3n2CCCCC3)cc1 [MLS000057041]	> 50
CC(C)=CC(=O)NCCc1ccccc1 [MLS000089152]	> 50
CN(C)c1ccc(C(=O)Nc2nc3c(s2)CCCC3)cc1 [4-(dimethylamino)-N-(4,5,6,7-tetrahydro-1,3-benzothiazol-2-yl)benzamide]	> 50
Cc1ccc(-n2c(O)c(C=NCCN3CCOCC3)c(=O)[nH]c2=O)cc1	> 50
CS(=O)(=O)N1CCN(C/C=C/c2ccccc2)CC1 [1-(methylsulfonyl)-4-(3-phenyl-2-propen-1-yl)piperazine]	> 50

Structure (SMILES)	IC50 [µM]
CCCSc1nc(N2CCOCC2)c2c(c1C#N)CCCC2 [1-(4-morpholinyl)-3-(propylthio)-5,6,7,8-tetrahydroisoquinoline-4-carbonitrile]	> 50
Cc1[nH]n2c(=O)cc(-c3ccc([N+](=O)[O-])cc3)nc2c1-c1ccccc1 [MLS000547439]	> 50
CCOC(=O)Cc1csc(NC(=O)CSc2nnc(-c3ccc(F)cc3)o2)n1 [(2-{2-[5-(4-Fluoro-phenyl)-[1,3,4]oxadiazol-2-ylsulfanyl]-acetylamino}-thiazol-4-yl)-acetic acid ethyl ester]	> 50
CCn1cnc2sc(C(=O)N3CCN(c4ccc(OC)cc4)CC3)c(C)c2c1=O [3-ethyl-6-[4-(4-methoxyphenyl)piperazin-1-yl]carbonyl-5-methyl-thieno[2,3-d]pyrimidin-4-one]	> 50
Cc1ccc(C(=O)c2c[nH]c(C(=O)NCCCN3CCOCC3)c2)cc1 [4-(4-methylbenzoyl)-N-(3-morpholin-4-ylpropyl)-1H-pyrrole-2-carboxamide]	> 50
Cn1c(-c2cc3ccc(OC(=O)C(C)(C)C)cc3oc2=O)nc2ccccc21 [2,2-Dimethyl-propionic acid 3-(1-methyl-1H-benzoimidazol-2-yl)-2-oxo-2H-chromen-7-yl ester]	> 50
O=C(CN1C(=O)COc2ccccc21)NCc1ccc(C(=O)O)cc1 [4-[[2-(3-oxidanylidene-1,4-benzoxazin-4-yl)ethanoylamino]methyl]benzoic acid]	> 50
Oc1ccc2ccc3cccc[n+]3c2c1 [9-benzo[c]quinolizin-11-iumol;iodide]	8.73
CCc1nc2cc(Cl)c(Cl)cc2[nH]1 [MLS000064722]	> 50
Cc1nc2c(=O)n(C)c(=O)nc-2n(C)n1 [1,3,6-Trimethyl-1H-pyrimido[5,4-e][1,2,4]triazine-5,7-dione]	14.6
O=C1C(=C2C(=O)c3ccccc3C2=O)Nc2ccccc21 [MLS000071738]	> 50
CCn1ccc(C(=O)Nc2ccc(N(C)C(C)=O)cc2)n1 [MLS000043435]	> 50
Cc1oc2c(c1C(=O)c1ccccc1)C(=O)C(=O)c1ccccc1-2 [2-methyl-3-(phenylcarbonyl)benzo[g][1]benzofuran-4,5-dione]	43.6
CCOc1ccccc1N1CCN(C2=C(NS(=O)(=O)c3cccs3)C(=O)c3ccccc3C2=O)CC1 [MLS000551587]	> 50
CCOC(=O)c1cc2n(c1N)-c1ccccc1C2=O [1-amino-4-keto-pyrrol[1,2-a]indole-2-carboxylic acid ethyl ester]	19.9
Cc1cccc(C)c1NC1=NC(=S)N(c2ccccc2)C12CCOC(C)(C)C2 (stereo not drawn) [4-(2,6-dimethylanilino)-7,7-dimethyl-1-phenyl-8-oxa-1,3-diazaspiro[4.5]dec-3-ene-2-thione]	> 50
Cc1ccc2cc(C(c3nnnn3C3CCCC3)N3CCN(c4ccccc4)CC3)c(=O)[nH]c2c1 (stereo not drawn) [3-[(1-cyclopentyltetrazol-5-yl)-(4-phenylpiperazin-1-yl)methyl]-7-methyl-1H-quinolin-2-one]	> 50
Cc1ccc(NC(=O)C2CC=CCC2C(=O)N2CCCCC2)cc1 (stereo not drawn) [6-(Piperidine-1-carbonyl)-cyclohex-3-enecarboxylic acid p-tolylamide]	> 50
